Where two headings read alike, the source gives them in different places. Marks after values point to notes of the source that are not given here.
Target: T1, F508delCFTR (Homo sapiens, UniProt P13569, DEL508-508)
T1 construct: expressed in transfected cells; host or cells: CFBE41o- human lung derived epithelial cells (CFBE41o-F508delCFTR-HRP), doxycycline-inducible
Test: Cell Surface Expression-Horse Radish Peroxidase (CSE-HRP) Assay;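 on EC50 (with co-corrector): co-corrector chromenyl benzoic acid corrector at 2 or 3 µM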;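 on Maximum % activity (without co-corrector): % of on-plate positive control chromenyl benzoic acid corrector at 2 or 3 µM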
Format: cell-based
Settings: for Maximum % activity (with co-corrector) / Emax: maximum at any tested concentration; for Emax: read-out: Maximum % activity (without co-corrector)
Method in brief: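 Corrector compounds were given as 8-point 3-fold series from 20 or 30 μM, with or without a 2 μM co-corrector, for 18-24 h at 33 °C. Surface HRP was read by luminol luminescence as % of positive control; variable-Hill-slope sigmoidal fitting gave EC50 from triplicate plates.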

[1] = test compound alone, without co-corrector, read-out: EC50 (without co-corrector)
[2] = with co-corrector, read-out: EC50 (with co-corrector)
[3] = test compound with co-corrector
[4] = test compound with co-corrector, read-out: EC50 (with co-corrector)
[5] = test compound without co-corrector
[6] = test compound without co-corrector, read-out: EC50 (without co-corrector)

T1 sequence (P13569 with tags, fused parts or gaps DEL508-508): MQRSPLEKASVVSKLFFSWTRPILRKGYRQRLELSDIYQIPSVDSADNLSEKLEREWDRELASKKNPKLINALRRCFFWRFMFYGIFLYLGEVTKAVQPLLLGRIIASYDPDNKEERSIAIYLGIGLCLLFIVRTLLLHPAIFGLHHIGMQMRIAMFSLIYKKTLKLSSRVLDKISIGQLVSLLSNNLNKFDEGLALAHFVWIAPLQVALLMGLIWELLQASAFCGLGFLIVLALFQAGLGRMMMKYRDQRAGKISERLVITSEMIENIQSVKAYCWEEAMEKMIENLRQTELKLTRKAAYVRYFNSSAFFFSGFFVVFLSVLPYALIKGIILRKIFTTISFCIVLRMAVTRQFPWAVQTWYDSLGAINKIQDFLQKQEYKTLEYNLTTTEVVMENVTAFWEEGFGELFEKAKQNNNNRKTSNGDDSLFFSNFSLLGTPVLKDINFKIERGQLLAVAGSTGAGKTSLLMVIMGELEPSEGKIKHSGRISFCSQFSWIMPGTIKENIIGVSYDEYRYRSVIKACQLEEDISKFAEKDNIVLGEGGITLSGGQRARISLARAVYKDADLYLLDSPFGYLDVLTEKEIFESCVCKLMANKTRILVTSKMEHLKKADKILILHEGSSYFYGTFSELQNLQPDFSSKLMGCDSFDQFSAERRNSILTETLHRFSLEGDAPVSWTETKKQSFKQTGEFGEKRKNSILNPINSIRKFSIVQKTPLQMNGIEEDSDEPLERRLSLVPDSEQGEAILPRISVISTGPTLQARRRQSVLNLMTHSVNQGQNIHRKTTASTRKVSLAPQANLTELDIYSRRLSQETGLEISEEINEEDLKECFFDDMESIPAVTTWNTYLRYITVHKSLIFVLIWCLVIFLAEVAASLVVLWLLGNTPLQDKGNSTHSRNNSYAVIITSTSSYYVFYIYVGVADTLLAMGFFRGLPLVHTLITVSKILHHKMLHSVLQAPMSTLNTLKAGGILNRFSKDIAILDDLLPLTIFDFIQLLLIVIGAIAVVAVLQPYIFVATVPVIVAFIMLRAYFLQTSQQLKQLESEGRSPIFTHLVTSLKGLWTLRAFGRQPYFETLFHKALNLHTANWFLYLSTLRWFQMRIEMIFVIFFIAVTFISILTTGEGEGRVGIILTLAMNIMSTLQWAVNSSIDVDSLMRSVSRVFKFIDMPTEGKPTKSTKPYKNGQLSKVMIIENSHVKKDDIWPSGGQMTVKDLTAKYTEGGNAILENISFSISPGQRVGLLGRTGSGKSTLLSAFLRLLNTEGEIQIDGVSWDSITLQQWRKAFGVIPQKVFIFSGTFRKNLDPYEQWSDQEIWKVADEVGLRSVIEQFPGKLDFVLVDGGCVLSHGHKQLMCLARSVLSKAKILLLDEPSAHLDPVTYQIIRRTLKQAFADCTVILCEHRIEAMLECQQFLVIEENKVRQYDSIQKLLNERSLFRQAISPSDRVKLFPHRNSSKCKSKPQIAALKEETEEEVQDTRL

EC50 [1] | Maximum % activity (with co-corrector) (with co-corrector) | EC50 [2] | Emax (without co-corrector) | Maximum % activity (with co-corrector) [3] | EC50 [4] | EC50 (without co-corrector) [5] | Emax [5] | EC50 [6] | SMILES
3 to 10 µM | ++ (≥150 and <350) | 3 to 10 µM | < 50% | – | – | – | – | – | O=C(NS(=O)(=O)c1ccccc1)C1(c2ccc(Cl)cc2)CC1 [Example III-33, N-(benzenesulfonyl)-1-(4-chlorophenyl)cyclopropane-1-carboxamide]
3 to 10 µM | +++ (≥350) | 3 to 10 µM | 50 to 150% | – | – | – | – | – | Cc1ccccc1S(=O)(=O)NC(=O)C1(c2ccc(Cl)cc2Cl)CC1 [Example III-87, 1-(2,4-dichlorophenyl)-N-(2-methylbenzene-1-sulfonyl)cyclopropane-1-carboxamide]
– | – | – | – | ++ (≥150 and <350) | 3 to 10 µM | ++^a | 50 to 150% | – | CC(C)Oc1ccc(C2(C(=O)NS(=O)(=O)c3cccc4ncccc34)CC2)c(N(C)C)n1 [GII-51, 1-{2-(dimethylamino)-6-[(propan-2-yl)oxy]pyridin-3-yl}-N-(quinoline-5-sulfonyl)cyclopropane-1-carboxamide]
– | – | – | – | +++ (≥350) | 3 to 10 µM | – | 50 to 150% | 3 to 10 µM | COc1nc(C(F)(F)F)ccc1C1(C(=O)NS(=O)(=O)c2cccc3c2CCCN3)CC1 [GII-12, 1-[2-methoxy-6-(trifluoromethyl)pyridin-3-yl]-N-(1,2,3,4-tetrahydroquinoline-5-sulfonyl)cyclopropane-1-carboxamide]
– | – | – | – | ++ (≥150 and <350) | 3 to 10 µM | – | 50 to 150% | 3 to 10 µM | CC(C)Oc1cc(C2CCC2)cnc1C1(C(=O)NS(=O)(=O)c2cccc3ncccc23)CC1 [GII-27, 1-{5-cyclobutyl-3-[(propan-2-yl)oxy]pyridin-2-yl}-N-(quinoline-5-sulfonyl)cyclopropane-1-carboxamide]
– | – | – | – | +++ (≥350) | < 3 µM | – | > 150% | < 3 µM | Cc1cnc(OCC2CC2)c(C2(C(=O)NS(=O)(=O)c3cccc4[nH]ccc34)CC2)c1 [Example GI-97, 1-[2-(cyclopropylmethoxy)-5-methylpyridin-3-yl]-N-(1H-indole-4-sulfonyl)cyclopropane-1-carboxamide]
< 3 µM | +++ (≥350) | < 3 µM | > 150% | – | – | – | – | – | CCOc1ccc(C)cc1C1(C(=O)NS(=O)(=O)c2cccc3nc(N)ccc23)CC1 [Example I-89, N-(2-aminoquinoline-5-sulfonyl)-1-(2-ethoxy-5-methylphenyl)cyclopropane-1-carboxamide]
> 10 µM | +++ (≥350) | 3 to 10 µM | > 150% | – | – | – | – | – | O=C(NS(=O)(=O)c1cccc2ccccc12)C1(c2ccc3c(c2)OC(F)(F)O3)CC1 [Example III-91, 1-(2,2-difluoro-2H-1,3-benzodioxol-5-yl)-N-(naphthalene-1-sulfonyl)cyclopropane-1-carboxamide]
– | – | – | – | ++ (≥150 and <350) | > 10 µM | – | < 50% | > 10 µM | Cc1cnc(N2CCN(C)CC2)c(C2(C(=O)NS(=O)(=O)c3cccc4ncccc34)CC2)c1 [GIII-26]
> 10 µM | ++ (≥150 and <350) | 3 to 10 µM | < 50% | – | – | – | – | – | O=C(NS(=O)(=O)c1ccc(Br)s1)C1(c2ccc(Cl)cc2Cl)CC1 [Example III-63, N-(5-bromothiophene-2-sulfonyl)-1-(2,4-dichlorophenyl)cyclopropane-1-carboxamide]
3 to 10 µM | +++ (≥350) | < 3 µM | > 150% | – | – | – | – | – | COc1ncc(C2CCC2)c(C)c1C1(C(=O)NS(=O)(=O)c2cccc3c2CCCN3)CC1 [II-38]
< 3 µM | +++ (≥350) | < 3 µM | > 150% | – | – | – | – | – | Cc1cnc(OC(C)C)c(C2(C(=O)NS(=O)(=O)c3cccc4nc(N)ccc34)CC2)c1 [Example I-97, N-(2-aminoquinoline-5-sulfonyl)-1-{5-methyl-2-[(propan-2-yl)oxy]pyridin-3-yl}cyclopropane-1-carboxamide]
– | – | – | – | +++ (≥350) | < 3 µM | – | > 150% | < 3 µM | CC(C)Oc1ncc(C2CC2)cc1C1(C(=O)NS(=O)(=O)c2cccc3[nH]ccc23)CC1 [Example GI-61, 1-{5-cyclopropyl-2-[(propan-2-yl)oxy]pyridin-3-yl}-N-(1H-indole-4-sulfonyl)cyclopropane-1-carboxamide]
< 3 µM | +++ (≥350) | < 3 µM | > 150% | – | – | – | – | – | COc1ccc2c(S(=O)(=O)NC(=O)C3(c4cc(C5CC5)cnc4OCC(C)C)CC3)cccc2n1 [II-93]
– | – | – | – | +++ (≥350) | < 3 µM | – | > 150% | 3 to 10 µM | CC(C)Oc1ncc(N(C)C)cc1C1(C(=O)NS(=O)(=O)c2cccc3[nH]ccc23)CC1 [Example GI-73, 1-{5-(dimethylamino)-2-[(propan-2-yl)oxy]pyridin-3-yl}-N-(1H-indole-4-sulfonyl)cyclopropane-1-carboxamide]
3 to 10 µM | +++ (≥350) | < 3 µM | > 150% | – | – | – | – | – | COc1nc2ccccc2cc1C1(C(=O)NS(=O)(=O)c2cccc3nc(C)ccc23)CC1 [Example I-75, 1-(2-methoxyquinolin-3-yl)-N-(2-methylquinoline-5-sulfonyl)cyclopropane-1-carboxamide]
< 3 µM | +++ (≥350) | < 3 µM | > 150% | – | – | – | – | – | COCC(C)(C)c1ccc(OC)c(C2(C(=O)NS(=O)(=O)c3cccc4nc(C)ccc34)CC2)c1 [II-113]
< 3 µM | +++ (≥350) | < 3 µM | > 150% | – | – | – | – | – | COc1ccc(C2CCC2)cc1C1(C(=O)NS(=O)(=O)c2cccc3c2CCN3)CC1 [Example I-54, 1-(5-cyclobutyl-2-methoxyphenyl)-N-(2,3-dihydro-1H-indole-4-sulfonyl)cyclopropane-1-carboxamide]
3 to 10 µM | +++ (≥350) | < 3 µM | > 150% | – | – | – | – | – | COc1ncc(C2CCC2)cc1C1(C(=O)NS(=O)(=O)c2cccc3ncn(C)c23)CC1 [II-12]
> 10 µM | + (<150) | > 10 µM | < 50% | – | – | – | – | – | CC(=O)N1CCc2cc(S(=O)(=O)NC(=O)C3(c4cccc(Cl)c4)CC3)ccc21 [Example III-76, N-(1-acetyl-2,3-dihydro-1H-indole-5-sulfonyl)-1-(3-chlorophenyl)cyclopropane-1-carboxamide]
3 to 10 µM | +++ (≥350) | < 3 µM | > 150% | – | – | – | – | – | COCC1(c2ccc(OC)c(C3(C(=O)NS(=O)(=O)c4cccc5nc(N)ccc45)CC3)c2)CC1 [II-82]
3 to 10 µM | +++ (≥350) | < 3 µM | > 150% | – | – | – | – | – | Cc1ccc2c(S(=O)(=O)NC(=O)C3(c4cc(Cl)ccc4OC(F)F)CC3)cccc2n1 [II-102]
